Test results: patent US12465650B2, “Methods and compositions for targeting cancer cells in metastases” (THE BOARD OF REGENTS OF THE UNIVERSITY OF TEXAS SYSTEM, priority 2021, dated 2025)
Bridge positions count the residues as written; N and C are the ends. Ends that are not written are not given here.

Assays:
[1] = system: Murine 3T3L1 preadipocytes; assay: anti-phage immunofluorescence, uptake by negative control cells; type: cell-based
Method: (§1) Immunofluorescence for tissue and cell analysis: Immunofluorescence on cells and formalin-fixed paraffin-embedded tissue sections was performed as described Zhang et al., 2012). Primary antibodies used: rabbit anti-Fd bacteriophage (Sigma Aldrich, 1:500), rabbit anti-Asp175-cleaved Caspase3 (Cell Signaling Technology, 1:100), mouse anti-E Cadherin and mouse anti-N Cadherin (BD Biosciences, 1:100). Secondary antibodies used: donkey Alexa 488-conjugated IgG (Invitrogen, 1:300) and Cy3-conjugated IgG (Jackson ImmunoResearch, 1:300). Biotinylated peptide internalization was visualized with Cy3-conjugated streptavidin IgG (Thermo Fischer Scientific, 1:50). Nuclei were stained with Hoechst 33258 (Invitrogen, 1:2000). Tissue and cell images were acquired with a Nikon Eclipse TE2000E Widefield Fluorescence Microscope (Nikon Instruments Inc.). Image quantification included 5 random microscopic fields of view at 20× magnification. Images were processed and analyzed with ImageJ software (NIH and University of Wisconsin). Cadherin co-localization was quantified based on the previously described ImageJ software object based-approach (JACoP) methodology based on the Mander's coefficient (Bolte and Cordelieres, 2006).
(§2) Murine 3T3L1 preadipocytes were used as a negative control and uptake was not observed for BLMP6-phage (FIG. 1C).

[2] = system: mCherry-positive metastatic tumor cells (4T1.2); assay: in vivo bio-panning of CX7C/CX8C phage-peptide library for lung metastasis-homing peptides; parameters: species or system Balb/c mice; conditions: p≤0.0001
Method: Animal experiments: Rodent studies were authorized by the Institutional Animal Care and Use Committees of UTHealth. Spontaneous cancer progression was modelled by injecting 2×10^4 4 T1.2 (mCherry+ Luciferase+) cells into the mammary fat pad of 10-week-old female Balb/c mice (Jackson Laboratory) with a 31-gauge needle. Primary tumor volume was measured weekly with calipers and calculated using the (length×width^2)/2 formula. At a tumor volume of ˜200 mm^3, mice were randomized into two cohorts and administered either vehicle (1×PBS) or cisplatin (Tocris Biosciences; 2.5 mg/kg) retro-orbitally once a week for three weeks. Metastatic progression was monitored with bioluminescence imaging. For experimental metastasis modeling in C57BL/6 mice (Jackson Laboratory), 1×10^5 B16F10 cells were intravenously injected into the tail vein and mice were used after 2 weeks. In both mice models, pulmonary metastases were observed 3 weeks post implantation. […] Selected phage were amplified through K91 E. coli infection and quantified via TU counting. For each round, clone enrichment was quantified based on recovery frequency among 96 phage peptide-coding inserts sequenced from PCR-amplified phage DNA (Kolonin et al., 2004). […] Radioactive uptake was measured using a Cobra II automated gamma counter (Packard) and expressed as percentage of the injected dose per gram tissue (% ID/g tissue). […]

[3] = system: MDA-MB-231 human TNBC cells; assay: phage-peptide clone binding to human TNBC cells; type: cell-based; conditions: phage-displayed
Text: as §2

[4] = system: 4T1.2 spontaneous metastases; assay: in vivo homing of individual phage-peptide clones, 4T1.2 model; parameters: species or system Balb/c mice; conditions: mouse
Method: Animal experiments: Rodent studies were authorized by the Institutional Animal Care and Use Committees of UTHealth. Spontaneous cancer progression was modelled by injecting 2×10^4 4 T1.2 (mCherry+ Luciferase+) cells into the mammary fat pad of 10-week-old female Balb/c mice (Jackson Laboratory) with a 31-gauge needle. Primary tumor volume was measured weekly with calipers and calculated using the (length×width^2)/2 formula. At a tumor volume of ˜200 mm^3, mice were randomized into two cohorts and administered either vehicle (1×PBS) or cisplatin (Tocris Biosciences; 2.5 mg/kg) retro-orbitally once a week for three weeks. Metastatic progression was monitored with bioluminescence imaging. For experimental metastasis modeling in C57BL/6 mice (Jackson Laboratory), 1×10^5 B16F10 cells were intravenously injected into the tail vein and mice were used after 2 weeks. In both mice models, pulmonary metastases were observed 3 weeks post implantation. The screen for metastasis-homing peptides was performed using a 50:50 mixture of phage cyclic peptide libraries CX7C and CX8C (C: cysteine; X: any amino acid residue) provided by Erkki Koivunen (Arap et al., 2002). For every bio-panning round, a mouse with metastases (between weeks 3 and 4) was intravenously injected with 10^10 transducing units (TU) of the library. After 3 hours of circulation, the heart was perfused with 10 ml phosphate buffered saline (PBS). […] Selected phage were amplified through K91 E. coli infection and quantified via TU counting. For each round, clone enrichment was quantified based on recovery frequency among 96 phage peptide-coding inserts sequenced from PCR-amplified phage DNA (Kolonin et al., 2004). […] Radioactive uptake was measured using a Cobra II automated gamma counter (Packard) and expressed as percentage of the injected dose per gram tissue (% ID/g tissue).
Immunofluorescence for tissue and cell analysis: Immunofluorescence on cells and formalin-fixed paraffin-embedded tissue sections was performed as described Zhang et al., 2012). […] Tissue and cell images were acquired with a Nikon Eclipse TE2000E Widefield Fluorescence Microscope (Nikon Instruments Inc.). Image quantification included 5 random microscopic fields of view at 20× magnification. Images were processed and analyzed with ImageJ software (NIH and University of Wisconsin). Cadherin co-localization was quantified based on the previously described ImageJ software object based-approach (JACoP) methodology based on the Mander's coefficient (Bolte and Cordelieres, 2006).
(§3) Tissue biodistribution was analyzed by immunofluorescence using phage-specific antibodies. […]

[5] = phage localization in cancer-free mice; conditions: mouse, in vivo
Method: as §1, §3

[6] = system: 4T1, B16F10 and MDA-MB-231 cancer cells that expressed N-cadherin but not E-cadherin; assay: co-localization with cadherins in cultured cell lines; type: cell-based, murine, human; conditions: reduced E-Cadherin expression
Method: Cell lines and primary cell culture: All cell lines were cultured in DMEM media (Hyclone) supplemented with penicillin-streptomycin (Gibco) and 10% fetal bovine serum (Atlas Biologicals). B16F10, MDA-MB-231, and 3T3L1 cell lines were from ATCC. 4T1.2 (4T1) cells expressing mCherry and Luciferase were a gift from S. Mani. Cisplatin-resistant 4T1.2 (4T1.2-CTX) cells were generated after treatment with cisplatin (Tocris Biosciences, 180 ng/mL).
as §1, with “Secondary antibodies used: donkey Alexa 488-conjugated IgG (Invitrogen, 1:300) and Cy3-conjugated IgG (Jackson ImmunoResearch, 1:300). Biotinylated peptide internalization was visualized with Cy3-conjugated streptavidin IgG (Thermo Fischer Scientific, 1:50). Nuclei were stained with Hoechst 33258 (Invitrogen, 1:2000).” left out, “2006). […]” for “2006).”

[7] = system: 4T1, B16F10 and MDA-MB-231 tumor cell lines; assay: trypan blue exclusion assay, tumor cell lines; type: cell-based, murine, human; conditions: 0.1 mM
Method: Peptides: The exemplary Hunter-killer (HK) peptides HK-BLMP5 and HK-BLMP6 were generated as “all-D-amino acid” cysteine-cyclized peptides (Celtek Bioscience). The proteolysis-resistant peptides were synthesized as acetate salts with an amino-hexanoic acid linker (NH—(CH2)5—CO) conjugating the BLMP and the apoptotic moiety KLAKLAKKLAKLAK (KLAKLAK2): SEQ ID NO:13. Following chromatographic purification, peptides were dissolved in PBS into 10 mM aliquots and stored frozen until further use. For the homing/internalization assay, peptides were biotin-labelled using the Sulfo-NHS-LC-Biotin Kit (APExBIO). Cells were plated in 24 well plates (1×10^5 cells/well), treated. Following treatment with either HK-BLMP6 (0.1 mM) or HK-BLMP5 (0.3 mM) in 0.5 ml serum free culture media for 8 hours, cells were stained with 0.4% Trypan Blue solution (MP Biomedicals) (Daquinag et al., 2016). For radioactive studies, 1,4,7,10-[…]-N′,N″,N′″,N″″-tetra-acetic acid (DOTA) t-Bu ester was purchased from Macrocyclics (Dallas, TX) and peptides were synthesized by Bachem Americas (Torrance, CA). DOTA-peptide conjugation was performed on solid-phase using previously described protocols (Azhdarinia et al., 2011). Radiolabeling with ^67GaCl3 and HPLC determination of purity were performed according to published procedures (Hernandez Vargas et al., 2019). […]

**Q.** Which “non-specific uptake by 3T3L1 cells compared to phage-displayed BLMP6” value [1] does the source give for “CEGPMYAKC (disulfide 1-9 (inferred)) [BLMP3]” here?
**A.** higher non-specific uptake

**Q.** For “CGVLPYSLC (disulfide 1-9 (inferred)) [BLMP1]”, which “non-specific uptake by 3T3L1 cells compared to phage-displayed BLMP6” value [1] is on record?
**A.** higher non-specific uptake

**Q.** Which “non-specific uptake by 3T3L1 cells compared to phage-displayed BLMP6” value [1] does the source give for “CHLSFSTAC (disulfide 1-9 (inferred)) [BLMP4]” here?
**A.** higher non-specific uptake

**Q.** Which results are given for “CLRHSSKIC (disulfide 1-9 (inferred)) [BLMP5]”?
**A.** enrichment in the last round of bio-panning [2]: most significant enrichment; non-specific uptake by 3T3L1 cells compared to phage-displayed BLMP6 [1]: higher non-specific uptake; binding to MDA-MB-231 cells [3]: exhibited binding; distribution within primary 4T1.2 tumor [4]: dispersed throughout the tumor; localization within macro-metastases [4]: localized predominantly along the invasive edges; localization to lungs in cancer-free mice [5]: lack of BLMP-phage localization to lungs

**Q.** Which “enrichment in the last round of bio-panning” value [2] does the source give for “CRAGVGRGC (disulfide 1-9 (inferred)) [BLMP6]” here?
**A.** most significant enrichment

**Q.** What about the “binding to MDA-MB-231 cells” value [3] of the same sequence?
**A.** exhibited binding

**Q.** And the “distribution within primary 4T1.2 tumor” value [4]?
**A.** observed selectively in a sub-population of cells associated with the vasculature

**Q.** And the localization within macro-metastases [4]?
**A.** abundant throughout

**Q.** What about the “localization to lungs in cancer-free mice” value [5] of the same sequence?
**A.** lack of BLMP-phage localization to lungs

**Q.** And the “binding to cisplatin-resistant 4T1.2 cells” value [6]?
**A.** maintaining BLMP6 binding

**Q.** With “CSGVGIASC (disulfide 1-9 (inferred)) [BLMP2]” as the sequence, how does the “non-specific uptake by 3T3L1 cells compared to phage-displayed BLMP6” value [1] read?
**A.** higher non-specific uptake

**Q.** For “KLAKLAKKLAKLAK [KLAKLAK2, untargeted apoptosis-inducing moiety]”, which “cell death (trypan blue)” value [7] is on record?
**A.** No cancer cell death
